Data published in the supplement of paper PMC9663587.

Experiments:
Test in all cases: area over the GR curve, 72 h; higher = more effect;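 further: Dye Drop or Deep Dye Drop imaging of viable cells in 384-well plates (Hoechst nuclei, LIVE/DEAD dye), nine half-log doses, GR normalized to DMSO controls and time-zero plates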
[1] = test system: MCF10A
[2] = test system: HCC202
[3] = test system: MDAMB436
[4] = test system: SUM190PT
[5] = test system: 184A1
[6] = test system: HCC1187
[7] = test system: MDAMB415
[8] = test system: BT20
[9] = test system: MDAMB468
[10] = test system: HCC1419
[11] = test system: CAMA1
[12] = test system: HCC70

SMILES	area over the GR curve [1] [GR]	area over the GR curve [2] [GR]	area over the GR curve [3] [GR]	area over the GR curve [4] [GR]	area over the GR curve [5] [GR]	area over the GR curve [6] [GR]	area over the GR curve [7] [GR]	area over the GR curve [8] [GR]	area over the GR curve [9] [GR]	area over the GR curve [10] [GR]	area over the GR curve [11] [GR]	area over the GR curve [12] [GR]	area over the GR curve ([1]; main component drawn) [GR]	area over the GR curve ([3]; main component drawn) [GR]	area over the GR curve ([8]; main component drawn) [GR]	area over the GR curve ([9]; main component drawn) [GR]	area over the GR curve ([10]; main component drawn) [GR]	area over the GR curve ([11]; main component drawn) [GR]	area over the GR curve ([12]; main component drawn) [GR]
COc1cccc(OCCCN)c1-c1cc(Nc2cnc(C#N)cn2)n[nH]1	0.301	0.332	0.545	0.598	0.0009	0.235	0.0862	0.973	0.227	0.413	0.483	1.64							
Cc1nc(NC(=O)N2CCC[C@H]2C(N)=O)sc1-c1ccnc(C(C)(C)C(F)(F)F)c1 [Alpelisib/BYL719] (max 10 µM)	0.113	0.351	0.0552	-0.103	0.136	0.0302	0.0453	0.201	0.0301	0.356	0.0106	0.112							
CC(=O)c1c(C)c2cnc(Nc3ccc(N4CCN(CCOCCOCCOCCNC(=O)COc5cccc6c5C(=O)N(C5CCC(=O)NC5=O)C6=O)CC4)cn3)nc2n(C2CCCC2)c1=O (stereo unspecified) [BSJ-03-123] (max 10 µM)	0.323	0.221	0.0446	0.568	0.708	-0.0405	0.332	0.423	0.265	0.415	0.658	0.181							
CC(=O)c1c(C)c2cnc(Nc3ccc(N4CCNCC4)cn3)nc2n(C2CCCC2)c1=O (max 3.162 µM)	0.188	0.135	-0.0424	0.319	0.375	0.268	0.454	0.39	-0.0231	0.208	0.353	-0.0552							
CS(=O)(=O)N1CCN(Cc2cc3nc(-c4cccc5[nH]ncc45)nc(N4CCOCC4)c3s2)CC1 [Pictilisib/GDC0941] (max 10 µM)	0.262	0.431	0.133	0.143	0.276	0.374	0.378	0.296	0.205	0.512	0.262	0.573							
Cc1cc(Nc2ncc(Cl)c(Nc3ccccc3S(=O)(=O)C(C)C)n2)c(OC(C)C)cc1C1CCNCC1 [Ceritinib/LDK378] (max 10 µM)	0.184	0.119	0.415	0.242	0.347	0.168	0.085	0.255	0.405	0.206	0.236	0.0676							
CC(=O)Nc1cccc(-n2c(=O)n(C3CC3)c(=O)c3c(Nc4ccc(I)cc4F)n(C)c(=O)c(C)c32)c1 (max 1 µM)	0.527	0.237	0.182	0.0746	0.659	0.198	0.174	0.176	0.213	0.285	0.169	0.692							
CC[C@@]1(O)C(=O)OCc2c1cc1n(c2=O)Cc2cc3c(CN(C)C)c(O)ccc3nc2-1 [Topotecan] (max 10 µM)	0.765		0.877					1.03	1.07	0.99	1.05	1.06							
CCNC(=O)c1noc(-c2cc(C(C)C)c(O)cc2O)c1-c1ccc(CN2CCOCC2)cc1 [Luminespib/NVP-AUY922] (max 1 µM)	0.613	0.431	0.633	0.728	0.539	0.919	0.613	0.559	0.648	0.641	0.535	0.732							
COc1cc2nccc(Oc3ccc(NC(=O)C4(C(=O)Nc5ccc(F)cc5)CC4)cc3)c2cc1OC [Cabozantinib] (max 10 µM)	-0.0114	-0.0223	0.0531	0.138	0.0128	0.39	-0.0499	0.0446	0.0415	-0.0617	0.0239	0.255							
NC(=O)Nc1cc(-c2cccc(F)c2)sc1C(=O)N[C@H]1CCCNC1 [AZD7762] (max 10 µM)	0.225	0.652	0.65	0.57	-0.0013	0.776	0.398	0.197	0.487	0.561	0.418	0.839							
CN(C)C(=O)c1cc2cnc(Nc3ccc(N4CCNCC4)cn3)nc2n1C1CCCC1 [LEE011/Ribociclib] (max 10 µM)	0.235	0.11	-0.012	0.576	0.449	-0.0536	0.613	0.433	0.0162	0.293	0.651	-0.0535							
COc1cccc2c1C(=O)c1c(O)c3c(c(O)c1C2=O)C[C@@](O)(C(=O)CO)C[C@@H]3O[C@H]1C[C@H](N)[C@H](O)[C@H](C)O1 [Doxorubicin] (max 3.162 µM)	0.655	0.358	0.706	0.403	0.706	1.08	0.834	0.828	0.912	0.59	0.843	0.775							
CCc1cnn2c(NCc3ccc[n+]([O-])c3)cc(N3CCCC[C@H]3CCO)nc12 (max 1 µM)	0.528	0.406	0.483	0.654	0.636	0.942	0.55	0.672	0.568	0.443	0.606	0.803							
CN(C)C/C=C/C(=O)Nc1ccc(C(=O)N2CCC[C@@H](Nc3ncc(Cl)c(-c4c[nH]c5ccccc45)n3)C2)cc1 [THZ531] (max 1 µM)	0.162	0.3	0.158	0.501	0.214	0.129	0.434	0.0416	0.404	0.21	0.241	0.462							
CN(C)C/C=C/C(=O)Nc1ccc(O[C@@H]2CCC[C@@H](Nc3ncc(Cl)c(-c4c[nH]c5ccccc45)n3)C2)cc1 [BSJ-01-175] (max 10 µM)	0.3	0.685	0.82	1.16	1.15	1.08	0.676	0.812	0.892	0.39	0.68	1.07							
C=CCn1c(=O)c2cnc(Nc3ccc(N4CCN(C)CC4)cc3)nc2n1-c1cccc(C(C)(C)O)n1 [AZD1775] (max 10 µM)	0.0857	0.579	0.497	0.615	0.366	0.822	0.28	0.198	0.47	0.238	0.0364	1.15							

SMILES	area over the GR curve [1] [GR]	area over the GR curve [2] [GR]	area over the GR curve [3] [GR]	area over the GR curve [4] [GR]	area over the GR curve [5] [GR]	area over the GR curve [6] [GR]	area over the GR curve [7] [GR]	area over the GR curve [8] [GR]	area over the GR curve [9] [GR]	area over the GR curve [10] [GR]	area over the GR curve [11] [GR]	area over the GR curve [12] [GR]	area over the GR curve ([1]; main component drawn) [GR]	area over the GR curve ([3]; main component drawn) [GR]	area over the GR curve ([8]; main component drawn) [GR]	area over the GR curve ([9]; main component drawn) [GR]	area over the GR curve ([10]; main component drawn) [GR]	area over the GR curve ([11]; main component drawn) [GR]	area over the GR curve ([12]; main component drawn) [GR]
CN1CCN(CCOc2cc(OC3CCOCC3)c3c(Nc4c(Cl)ccc5c4OCO5)ncnc3c2)CC1 [Saracatinib/AZD0530] (max 10 µM)	0.125	0.396	0.0385	0.181	0.0722	0.457	0.208	0.159	0.139	0.264	0.0262	0.573							
N.N.[Cl][Pt][Cl] [Cisplatin] (max 10 µM)	0.0952		0.36					0.334	0.287	0.223	0.328	0.253							
CCOc1cc2ncc(C#N)c(Nc3ccc(OCc4ccccn4)c(Cl)c3)c2cc1NC(=O)/C=C/CN(C)C [Neratinib/HKI272] (max 3.162 µM)	0.344	0.453	0.188	0.0652	0.421	0.181	0.0594	0.147	0.386	0.993	0.0703	0.317							
CNC(=O)c1cccc(-c2ccc3c(N4CCOC[C@@H]4C)nc(N4CCOC[C@@H]4C)nc3n2)c1 [AZD2014] (max 10 µM)	0.4	0.698	0.363	0.844	0.729	0.296	0.762	0.484	0.401	0.942	0.873	0.778							
CO[C@@H](C)Cn1c(=O)n(C)c2cnc3ccc(-c4cncc(C(C)(C)O)c4)cc3c21 (max 10 µM)	0.447	0.726	0.372	1.16	0.761	0.303	0.922	0.768	0.669	0.979	0.972	0.8							
CCN1CCN(Cc2ccc(Nc3ncc(F)c(-c4cc(F)c5nc(C)n(C(C)C)c5c4)n3)nc2)CC1 (max 10 µM)	0.381	0.277	0.187	0.66	0.635	0.33	0.71	0.569	0.176	0.433	0.613	0.145							
O=C(c1cc(Cc2n[nH]c(=O)c3ccccc23)ccc1F)N1CCN(C(=O)C2CC2)CC1 [Olaparib/AZD2281] (max 10 µM)	0.0408	0.127	0.305	0.0197	0.0908	0.157	-0.0472	0.0657	0.0573	0.018	0.0527	-0.0522							
O=C(CCCCCCC(=O)Nc1ccccc1)NO [Vorinostat] (max 10 µM)	0.168	0.202	0.163	0.426	0.188	0.303	0.172	0.151	0.217	0.148	0.383	0.38							
Cc1nc(Nc2ncc(C(=O)Nc3c(C)cccc3Cl)s2)cc(N2CCN(CCO)CC2)n1 [Dasatinib] (max 10 µM)	0.339	0.779	0.102	0.32	0.264	0.618	0.272	0.329	0.143	0.311	0.152	1.06							
Nc1cc(C(F)(F)F)c(-c2cc(N3CCOCC3)nc(N3CCOCC3)n2)cn1 [Buparlisib/NVP-BKM120] (max 10 µM)	0.249	0.371	0.292	0.253	0.268	0.425	0.35	0.359	0.357	0.45	0.353	0.435							
CC(C)Nc1cc(-c2c[nH]c(C(=O)N[C@H](CO)c3cccc(Cl)c3)c2)c(Cl)cn1 [BVD523] (max 10 µM)	0.311	0.174	0.0948	0.218	0.704	-0.297	0.121	0.132	0.267	0.0554	0.241	0.296							
CC[C@@H]1C(=O)N(C)c2cnc(Nc3ccc(C(=O)N[C@H]4CC[C@H](N5CCN(CC6CC6)CC5)CC4)cc3OC)nc2N1C(C)C [Volasertib/BI6727] (max 1 µM)	0.447	0.38	0.662	0.621	0.54	0.883	0.546	0.79	0.928	0.325	0.674	0.579							
CNCc1ccc(-c2[nH]c3cc(F)cc4c3c2CCNC4=O)cc1 [Rucaparib] (max 10 µM)	0.0413	0.207	0.399	0.0862	0.0986	-0.119	0.11	0.0785	0.101	0.0527	0.0981	-0.0415							
CC(C)NC[C@@H](C(=O)N1CCN(c2ncnc3c2[C@H](C)C[C@H]3O)CC1)c1ccc(Cl)cc1 [Ipatasertib/GDC0068] (max 10 µM)	0.06	0.169	0.104	0.0489	0.12	0.286	0.758	0.311	0.223	0.0911	0.412	0.488							
COc1cc([C@@H]2c3cc4c(cc3[C@@H](O[C@@H]3O[C@@H]5CO[C@@H](C)O[C@H]5[C@H](O)[C@H]3O)[C@H]3COC(=O)[C@H]23)OCO4)cc(OC)c1O [Etoposide] (max 10 µM)	0.415		0.434					0.459	0.429	0.32	0.571	0.454							
Cc1c(N)nc([C@H](CC(N)=O)NC[C@H](N)C(N)=O)nc1C(=O)N[C@H](C(=O)N[C@H](C)[C@@H](O)[C@H](C)C(=O)N[C@H](C(=O)NCCc1nc(-c2nc(C(=O)NCCC[S+](C)C)cs2)cs1)[C@@H](C)O)[C@@H](OC1OC(CO)C(O)C(O)C1OC1OC(CO)C(O)C(OC(N)=O)C1O)c1cnc[nH]1 (stereo partly specified) [Bleomycin] (max 10 µM)													0.449	0.309	0.376	0.325	0.141	0.274	0.419
